The results in this text go back to PMC6063787 (Nature, 2018).

The target of data set [1] is T1, NfMCU (mitochondrial calcium uniporter ortholog) (Aspergillus fischeri, UniProt A1CWT6).
T1 sequence (A1CWT6 76-488): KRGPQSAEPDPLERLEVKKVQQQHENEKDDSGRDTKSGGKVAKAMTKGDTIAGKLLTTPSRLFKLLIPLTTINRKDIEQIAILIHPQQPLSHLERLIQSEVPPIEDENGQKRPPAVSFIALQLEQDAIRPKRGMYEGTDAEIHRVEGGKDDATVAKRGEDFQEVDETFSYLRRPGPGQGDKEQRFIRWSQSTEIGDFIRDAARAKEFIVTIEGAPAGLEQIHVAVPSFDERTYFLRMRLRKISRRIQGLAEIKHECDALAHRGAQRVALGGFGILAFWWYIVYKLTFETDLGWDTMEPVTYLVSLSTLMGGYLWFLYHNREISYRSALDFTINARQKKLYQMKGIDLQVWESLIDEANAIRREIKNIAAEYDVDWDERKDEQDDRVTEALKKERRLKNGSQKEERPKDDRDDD
In words: […] flux block in proteoliposomes of purified NfMCU. It is filed as cell-based.

The data set “cryo-EM structure” deals with the molecule itself. Nature of the data set: cryo-EM structure.

On to `[NH2][Ru-3]([NH2])([NH2])([NH3+])([O]C=O)[O][Ru-2]([NH3+])([NH3+])([NH3+])([NH3+])[O]C=O` [Ru360], for which, in data set [1], the IC50 was found to be 0.5 µM.

B1: saposin (scaffolding protein, 81 residues) (natural protein)
chain: SLPCDICKDVVTAAGDMLKDNATEEEILVYLEKTCDWLPKPNMSASCKEIVDSYLPVILDIIKGEMSRPGEVCSALNLCESLQ
Take B1: in the data set “cryo-EM structure”, the “stoichiometry N” value worked out at 6.

By IC50 is commonly meant the concentration that gives 50% inhibition. For orientation: stoichiometry N means the number of molecules, sites or subunits per partner or assembly.
